# Test results from patent US20240384350A1, “METHODS OF TREATING CANCER WITH KINASE INHIBITORS” (BOARD OF REGENTS, THE UNIVERSITY OF TEXAS SYSTEM, priority 2021, published 2024).
# Legend:
# Test in all cases: Ba/F3 drug screening, Cell Titer Glo, IC50 Mut/WT
# Assay type in all cases: cell-based
# EGFR R776C = molecular target: T1, EGFR R776C (Homo sapiens, UniProt P00533, R776C); details: Ba/F3 cells, EGFR R776C (PACC), Mut/WT
# T1 construct: host or cells: Ba/F3
# Experimental: (§1) Data represent the ratio of the IC50 value for a given TKI for cells with a PACC EGFR mutation to the IC50 value for cells with wildtype EGFR.
# (§2) Ba/F3 cell generation, drug screening, and IC50 approximations. Ba/F3 cells were obtained as a gift from Dr. Gordon Mills (MD Anderson Cancer Center), and maintained in RPMI (Sigma) containing 10% FBS, 1% penicillin/streptomycin, and 10 ng/ml recombinant mIL-3 (R&D Biosystems). To establish stable Ba/F3 cell lines, Ba/F3 cells were transduced with retroviruses containing mutant EGFR plasmids for 12-24 hours.
# (§3) After 48-72 hours of transduction, 2 μg/ml puromycin (Invitrogen) was added to Ba/F3 cell lines in complete RPMI. To select for EGFR positive cell lines, cells were stained with PE-EGFR (Biolegend) and sorted by FACS. After sorting, EGFR positive cells were maintained in RPMI containing 10% FBS, 1% penicillin/streptomycin, and 1 ng/ml EGF to support cell viability. Drug screening was performed as previously described^41,42. Shortly, cells were plated in 384-well plates (Greiner Bio-One) at 2000-3000 cells per well in technical triplicate. Seven different concentrations of TKIs or DMSO vehicle were added to reach a final volume of 40 μL per well. After 72 hours, 11 μL of Cell Titer Glo (Promega) was added to each well. Plates were incubated for a minimum of 10 minutes, and bioluminescence was determined using a FLUOstar OPTIMA plate reader (BMG LABTECH). Raw bioluminescence values were normalized to DMSO control treated cells, and values were plotted in GraphPad Prism. […] Drug screens were performed in technical triplicate on each plate and either duplicate or triplicate biological replicates.
# EGFR S720P = molecular target: T2, EGFR S720P (Homo sapiens, UniProt P00533, S720P); details: Classical-Like, 72 hours
# T2 construct: expressed in transfected cells; host or cells: Ba/F3 cells, retroviral pBabe-Puro vector (vector made by GeneScript from EGFR WT)
# Experimental: (§4) Data represent the ratio of the IC50 value for a given TKI for cells with a classical-like EGFR mutation to the IC50 value for cells with wildtype EGFR.
# as §2
# (§5) After 48-72 hours of transduction, 2 μg/ml puromycin (Invitrogen) was added to Ba/F3 cell lines in complete RPMI. To select for EGFR positive cell lines, cells were stained with PE-EGFR (Biolegend) and sorted by FACS. After sorting, EGFR positive cells were maintained in RPMI containing 10% FBS, 1% penicillin/streptomycin, and 1 ng/ml EGF to support cell viability. […] Shortly, cells were plated in 384-well plates (Greiner Bio-One) at 2000-3000 cells per well in technical triplicate. Seven different concentrations of TKIs or DMSO vehicle were added to reach a final volume of 40 μL per well. After 72 hours, 11 μL of Cell Titer Glo (Promega) was added to each well. Plates were incubated for a minimum of 10 minutes, and bioluminescence was determined using a FLUOstar OPTIMA plate reader (BMG LABTECH). Raw bioluminescence values were normalized to DMSO control treated cells, and values were plotted in GraphPad Prism. […] Drug screens were performed in technical triplicate on each plate and either duplicate or triplicate biological replicates.
# EGFR A763insFQEA = molecular target: T3, EGFR A763insFQEA (Homo sapiens, UniProt P00533, INS763FQEA); details: Classical-Like, 72 hours
# T3 construct: expressed in transfected cells; host or cells: Ba/F3 cells, retroviral pBabe-Puro vector
# Experimental: as §4, §2, §5
# EGFR L858R/L792H = molecular target: T4, EGFR L858R/L792H (Homo sapiens, UniProt P00533, L792H/L858R); details: Ba/F3 cells, EGFR L858R/L792H (PACC), Mut/WT
# T4 construct: expressed in transfected cells; host or cells: Ba/F3
# EGFR Ex19del T790M C797S = molecular target: T5, EGFR Ex19del T790M C797S (Homo sapiens, UniProt P00533, C797S/DEL746-750/T790M); details: T790M-like-3R, 72 hours
# T5 construct: expressed in transfected cells; host or cells: Ba/F3
# EGFR T790M = molecular target: T6, EGFR T790M (Homo sapiens, UniProt P00533, T790M); details: T790M-like-3S, 72 hours
# T6 construct: expressed in transfected cells; host or cells: Ba/F3
# Experimental: (§6) Data represent the ratio of the IC50 value for a given TKI for cells with a T790M-like-3S EGFR mutation to the IC50 value for cells with wildtype EGFR.
# as §2, §3
# EGFR E709A G719S = molecular target: T7, EGFR E709A G719S (Homo sapiens, UniProt P00533, E709A/G719S); details: Ba/F3 cells, EGFR E709A G719S (PACC), Mut/WT
# T7 construct: expressed in transfected cells; host or cells: Ba/F3
# Experimental: as §1, §2, §3
# EGFR S768dupSVD = molecular target: T8, EGFR S768dupSVD (Homo sapiens, UniProt P00533, DUP768-770); details: Ex20, 72 hours
# T8 construct: expressed in transfected cells; host or cells: Ba/F3 cells, retroviral pBabe-Puro vector
# EGFR G719A L861Q = molecular target: T9, EGFR G719A L861Q (Homo sapiens, UniProt P00533, G719A/L861Q); details: Ba/F3 cells, EGFR G719A L861Q (PACC), Mut/WT
# T9 construct: expressed in transfected cells; host or cells: Ba/F3
# EGFR G719S = molecular target: T10, EGFR G719S (Homo sapiens, UniProt P00533, G719S); details: Ba/F3 cells, EGFR G719S (PACC), Mut/WT
# T10 construct: expressed in transfected cells; host or cells: Ba/F3
# Experimental: as §1, §2, §3
# EGFR Ex19del T790M = molecular target: T11, EGFR Ex19del T790M (Homo sapiens, UniProt P00533, DEL746-750/T790M); details: T790M-like-3S, 72 hours
# T11 construct: expressed in transfected cells; host or cells: Ba/F3
# Experimental: as §6, §2, §3
# EGFR L833F = molecular target: T12, EGFR L833F (Homo sapiens, UniProt P00533, L833F); details: Classical-Like, 72 hours
# T12 construct: expressed in transfected cells; host or cells: Ba/F3 cells, retroviral pBabe-Puro vector
# Experimental: as §4, §2, §5
# EGFR G719A = molecular target: T13, EGFR G719A (Homo sapiens, UniProt P00533, G719A); details: Ba/F3 cells, EGFR G719A (PACC), Mut/WT
# T13 construct: expressed in transfected cells; host or cells: Ba/F3
# Experimental: as §1, §2, §3
# EGFR L861Q = molecular target: T14, EGFR L861Q (Homo sapiens, UniProt P00533, L861Q); details: Classical-Like, 72 hours
# T14 construct: expressed in transfected cells; host or cells: Ba/F3 cells, retroviral pBabe-Puro vector
# EGFR V774M = molecular target: T15, EGFR V774M (Homo sapiens, UniProt P00533, V774M); details: Ba/F3 cells, EGFR V774M (PACC), Mut/WT
# T15 construct: host or cells: Ba/F3
# EGFR A763insLQEA = molecular target: T16, EGFR A763insLQEA (Homo sapiens, UniProt P00533, INS763LQEA); details: Classical-Like, 72 hours
# T16 construct: expressed in transfected cells; host or cells: Ba/F3 cells, retroviral pBabe-Puro vector
# Experimental: as §4, §2, §5
# EGFR H773insNPH = molecular target: T17, EGFR H773insNPH (Homo sapiens, UniProt P00533, INS773NPH); details: Ex20, 72 hours
# T17 construct: expressed in transfected cells; host or cells: Ba/F3 cells, retroviral pBabe-Puro vector
# Experimental: Data represent the ratio of the IC50 value for a given TKI for cells with an ex20ins EGFR mutation to the IC50 value for cells with wildtype EGFR.
# as §2
# After 48-72 hours of transduction, 2 μg/ml puromycin (Invitrogen) was added to Ba/F3 cell lines in complete RPMI. To select for EGFR positive cell lines, cells were stained with PE-EGFR (Biolegend) and sorted by FACS. After sorting, EGFR positive cells were maintained in RPMI containing 10% FBS, 1% penicillin/streptomycin, and 1 ng/ml EGF to support cell viability. Drug screening was performed as previously described^41,42. Shortly, cells were plated in 384-well plates (Greiner Bio-One) at 2000-3000 cells per well in technical triplicate. Seven different concentrations of TKIs or DMSO vehicle were added to reach a final volume of 40 μL per well. After 72 hours, 11 μL of Cell Titer Glo (Promega) was added to each well. Plates were incubated for a minimum of 10 minutes, and bioluminescence was determined using a FLUOstar OPTIMA plate reader (BMG LABTECH). Raw bioluminescence values were normalized to DMSO control treated cells, and values were plotted in GraphPad Prism. […] Drug screens were performed in technical triplicate on each plate and either duplicate or triplicate biological replicates. […] Statistical differences between groups were determined by ANOVA as described in the figure legends.
# EGFR Ex19del = molecular target: T18, EGFR Ex19del (Homo sapiens, UniProt P00533, DEL746-750); details: Classical-Like, 72 hours
# T18 construct: expressed in transfected cells; host or cells: Ba/F3 cells, retroviral pBabe-Puro vector
# EGFR L858R S784F = molecular target: T19, EGFR L858R S784F (Homo sapiens, UniProt P00533, L858R/S784F); details: Classical-Like, 72 hours
# T19 construct: expressed in transfected cells; host or cells: Ba/F3 cells, retroviral pBabe-Puro vector (vector made by GeneScript from EGFR L858R)
# EGFR I740dupIPVAK = details: Ba/F3 cells, EGFR I740dupIPVAK (PACC), Mut/WT
# Experimental: as §1, §2, §3
# EGFR E709K L858R = molecular target: T20, EGFR E709K L858R (Homo sapiens, UniProt P00533, E709K/L858R); details: Classical-Like, 72 hours
# T20 construct: expressed in transfected cells; host or cells: Ba/F3 cells, retroviral pBabe-Puro vector
# Experimental: as §4, §2, §5
# EGFR G719S T790M = molecular target: T21, EGFR G719S T790M (Homo sapiens, UniProt P00533, G719S/T790M); details: T790M-like-3S, 72 hours
# T21 construct: expressed in transfected cells; host or cells: Ba/F3
# Experimental: as §6, §2, §3
# EGFR L718Q T790M = molecular target: T22, EGFR L718Q T790M (Homo sapiens, UniProt P00533, L718Q/T790M); details: T790M-like-3R, 72 hours
# T22 construct: expressed in transfected cells; host or cells: Ba/F3
# EGFR L747P = molecular target: T23, EGFR L747P (Homo sapiens, UniProt P00533, L747P); details: Ba/F3 cells, EGFR L747P (PACC), Mut/WT
# T23 construct: expressed in transfected cells; host or cells: Ba/F3
# EGFR L858R T790M L718V = molecular target: T24, EGFR L858R T790M L718V (Homo sapiens, UniProt P00533, L718V/L858R/T790M); details: T790M-like-3R, 72 hours
# T24 construct: expressed in transfected cells; host or cells: Ba/F3
# Experimental: Data represent the ratio of the IC50 value for a given TKI for cells with a T790M-like-3R EGFR mutation to the IC50 value for cells with wildtype EGFR.
# as §2
# After 48-72 hours of transduction, 2 μg/ml puromycin (Invitrogen) was added to Ba/F3 cell lines in complete RPMI. To select for EGFR positive cell lines, cells were stained with PE-EGFR (Biolegend) and sorted by FACS. After sorting, EGFR positive cells were maintained in RPMI containing 10% FBS, 1% penicillin/streptomycin, and 1 ng/ml EGF to support cell viability. […] Shortly, cells were plated in 384-well plates (Greiner Bio-One) at 2000-3000 cells per well in technical triplicate. Seven different concentrations of TKIs or DMSO vehicle were added to reach a final volume of 40 μL per well. After 72 hours, 11 μL of Cell Titer Glo (Promega) was added to each well. Plates were incubated for a minimum of 10 minutes, and bioluminescence was determined using a FLUOstar OPTIMA plate reader (BMG LABTECH). Raw bioluminescence values were normalized to DMSO control treated cells, and values were plotted in GraphPad Prism. […] Drug screens were performed in technical triplicate on each plate and either duplicate or triplicate biological replicates. […] Statistical differences between groups were determined by ANOVA as described in the figure legends.
# EGFR E709_T710del insD = molecular target: T25, EGFR E709_T710del insD (Homo sapiens, UniProt P00533, DEL709-709/T710D); details: Ba/F3 cells, EGFR E709_T710del insD (PACC), Mut/WT
# T25 construct: expressed in transfected cells; host or cells: Ba/F3
# Experimental: as §1, §2, §3
# EGFR N771dupN G724S = molecular target: T26, EGFR N771dupN G724S (Homo sapiens, UniProt P00533, DUP771-771/G724S); details: Ex20, 72 hours
# T26 construct: expressed in transfected cells; host or cells: Ba/F3 cells, retroviral pBabe-Puro vector (vector made by GeneScript from EGFR G724S, c.2313_2314insAAC)
smiles,measurement,setting,value
C=CC(=O)N[C@H]1C=C(C)c2c(-c3cnc4ccccc4c3)c3c(N)ncnc3n2C1 [TAS 6417],ratio of the IC50 value for cells with a PACC EGFR mutation to the IC50 value for cells with wildtype EGFR,EGFR R776C,0.1072
same,ratio of IC50 for cells with mutant EGFR to IC50 for cells with wildtype EGFR (Mut/WT),EGFR S720P,0.01035
same,ratio of IC50 for cells with mutant EGFR to IC50 for cells with wildtype EGFR (Mut/WT),EGFR A763insFQEA,0.004982
same,ratio of the IC50 value for cells with a PACC EGFR mutation to the IC50 value for cells with wildtype EGFR,EGFR L858R/L792H,0.004611
same,ratio of IC50 for cells with mutant EGFR to IC50 for cells with wildtype EGFR (Mut/WT),EGFR Ex19del T790M C797S,3.055
same,ratio of IC50 for cells with mutant EGFR to IC50 for cells with wildtype EGFR (Mut/WT),EGFR T790M,0.6671
same,ratio of the IC50 value for cells with a PACC EGFR mutation to the IC50 value for cells with wildtype EGFR,EGFR E709A G719S,0.03472
same,ratio of IC50 for cells with mutant EGFR to IC50 for cells with wildtype EGFR (Mut/WT),EGFR S768dupSVD,0.05773
same,ratio of the IC50 value for cells with a PACC EGFR mutation to the IC50 value for cells with wildtype EGFR,EGFR G719A L861Q,0.02387
same,ratio of the IC50 value for cells with a PACC EGFR mutation to the IC50 value for cells with wildtype EGFR,EGFR G719S,0.01675
same,ratio of IC50 for cells with mutant EGFR to IC50 for cells with wildtype EGFR (Mut/WT),EGFR Ex19del T790M,0.001513
same,ratio of IC50 for cells with mutant EGFR to IC50 for cells with wildtype EGFR (Mut/WT),EGFR L833F,0.06886
same,ratio of the IC50 value for cells with a PACC EGFR mutation to the IC50 value for cells with wildtype EGFR,EGFR G719A,0.01801
same,ratio of IC50 for cells with mutant EGFR to IC50 for cells with wildtype EGFR (Mut/WT),EGFR L861Q,0.02761
same,ratio of the IC50 value for cells with a PACC EGFR mutation to the IC50 value for cells with wildtype EGFR,EGFR V774M,0.3282
same,ratio of IC50 for cells with mutant EGFR to IC50 for cells with wildtype EGFR (Mut/WT),EGFR A763insLQEA,0.005254
same,ratio of IC50 for cells with mutant EGFR to IC50 for cells with wildtype EGFR (Mut/WT),EGFR H773insNPH,0.1843
same,ratio of IC50 for cells with mutant EGFR to IC50 for cells with wildtype EGFR (Mut/WT),EGFR Ex19del,0.00149
same,ratio of IC50 for cells with mutant EGFR to IC50 for cells with wildtype EGFR (Mut/WT),EGFR L858R S784F,0.001423
same,ratio of the IC50 value for cells with a PACC EGFR mutation to the IC50 value for cells with wildtype EGFR,EGFR I740dupIPVAK,0.3555
same,ratio of IC50 for cells with mutant EGFR to IC50 for cells with wildtype EGFR (Mut/WT),EGFR E709K L858R,0.002607
same,ratio of IC50 for cells with mutant EGFR to IC50 for cells with wildtype EGFR (Mut/WT),EGFR G719S T790M,0.032
same,ratio of IC50 for cells with mutant EGFR to IC50 for cells with wildtype EGFR (Mut/WT),EGFR L718Q T790M,0.02624
same,ratio of the IC50 value for cells with a PACC EGFR mutation to the IC50 value for cells with wildtype EGFR,EGFR L747P,0.1949
same,ratio of IC50 for cells with mutant EGFR to IC50 for cells with wildtype EGFR (Mut/WT),EGFR L858R T790M L718V,2.011
same,ratio of the IC50 value for cells with a PACC EGFR mutation to the IC50 value for cells with wildtype EGFR,EGFR E709_T710del insD,0.3335
same,ratio of IC50 for cells with mutant EGFR to IC50 for cells with wildtype EGFR (Mut/WT),EGFR N771dupN G724S,0.05113
